Data as given in patent US4292314A, “Cardioactive 12-dehydrodigoxin-oximes” (Boehringer Mannheim GmbH, priority 1979, dated 1981).
Where two headings read alike, the source gives them in different places.

Experiments:
[1] = Pharmacokinetic investigations on awake cats, intravenous injection of 3H-marked test compounds; assay type: in vivo, cat; conditions: for distribution volume / elimination constant / excretion in urine: awake cats, i.v., digoxin 30 μg./kg., Cpd. 1 and Cpd. 7 100 μg./kg.; for excretion in urine: urine collected for 14 days; for dosage needed to achieve the same plasma concentration, relative to digoxin: from total clearance
Description: Pharmacokinetic investigations were carried out on awake cats, the test compounds being injected intravenously in the ^3 H-marked form. Over the course of 48 hours, blood samples were taken via an implanted catheter for the determination of the radioactivity in the plasma. The urine was collected for 14 days. The elimination constant was calculated from the decrease of the plasma concentration and the amount excreted in the urine.

in vivo = conditions: cat, in vivo
Description: (§1) The pharmacological action of the new compounds according to the present invention was determined by the comparison of 12-dehydrodigoxin oxime (Compound 1 from) and 12-dehydrodigoxin-o-methyloxime (Compound 7 from) with digoxin, which is a known pharmaceutical for the treatment of cardiac insufficiency, using the following experimental procedure:
(§2) The positive inotropic and cardiotoxic action was tested on cats with pentobarbital-induced heart insufficiency. Increasing dosages were injected at intervals of 10 minutes, so that the total dosage increased in each case by the factor √2. The criterion for the therapeutically relevant, positively inotropic action was the increase of the maximum pressure increase rate by 1.5 or 3.0 mm. Hg/sec (DE1.5 and DE3.0). The quotient from both values is a measure for the steepness of the dosage activity line.
(§3) The measure for the cardiotoxicity was the dosage at which the first disturbances of the induction of stimulation took place. The point of time of the commencement of arrhythmias as ascertained from the electrocardiogram and the related dosage calculated by interpolation. The quotient from this cardiotoxic dosage and the DE1.5 served as a measure for the therapeutic breadth.

[2] = tested on: cats with pentobarbital-induced heart insufficiency; experiment: animal or person; conditions: for ED (1.5 mmHg/sec increase) / ED (3.0 mmHg/sec increase): Felis catus, 10 min; for ED (1.5 mmHg/sec increase): read-out: DE1.5; for ED (3.0 mmHg/sec increase): read-out: DE3.0; for quotient of DE3.0 and DE1.5, steepness of the dosage activity line: cats, fractionated injection
Description: as §1, §2, §3

[3] = humans; cited from earlier work

C[C@H]1O[C@@H](O[C@H]2[C@@H](O)C[C@H](O[C@H]3[C@@H](O)C[C@H](O[C@H]4CC[C@@]5(C)[C@H](CC[C@@H]6[C@@H]5C[C@@H](O)[C@]5(C)[C@@H](C7=CC(=O)OC7)CC[C@]65O)C4)O[C@@H]3C)O[C@@H]2C)C[C@H](O)[C@@H]1O [digoxin]
distribution volume [1]: 13.3 kg⁻¹ | elimination constant [1]: 0.01214 h⁻¹ | excretion in urine [1]: 42.8 % of dose | TD50 (in vivo): 0.33 mg/kg | selectivity ratio (in vivo): 2.75 | ED (1.5 mmHg/sec increase) [2]: 0.12 mg/kg | ED (3.0 mmHg/sec increase) [2]: 0.253 mg/kg | quotient of DE3.0 and DE1.5, steepness of the dosage activity line [2]: 2.28 | elimination constant [3]: about 0.015 h^-1

CON=C1C[C@H]2[C@@H](CC[C@@H]3C[C@@H](O[C@H]4C[C@H](O)[C@H](O[C@H]5C[C@H](O)[C@H](O[C@H]6C[C@H](O)[C@H](O)[C@@H](C)O6)[C@@H](C)O5)[C@@H](C)O4)CC[C@@]32C)[C@@]2(O)CC[C@H](C3=CC(=O)OC3)[C@@]12C [Compound 7, 12-Dehydrodigoxin--O-methyloxime]
distribution volume [1]: 1.47 kg⁻¹ | elimination constant [1]: 0.0143 h⁻¹ | excretion in urine [1]: 31 % of dose | dosage needed to achieve the same plasma concentration, relative to digoxin ([1]; cats): 13 % of the dosage of digoxin | distribution volume compared with digoxin ([1]; in words, cats): lower distribution volume | elimination constant compared with digoxin ([1]; in words, cats): about equally as great as for digoxin | total clearance compared with digoxin ([1]; in words, cats): lower total clearance | TD50 (in vivo): 1.37 mg/kg | selectivity ratio (in vivo): 4.1 | ED (1.5 mmHg/sec increase) [2]: 0.334 mg/kg | ED (3.0 mmHg/sec increase) [2]: 0.817 mg/kg | quotient of DE3.0 and DE1.5, steepness of the dosage activity line [2]: 3.56 | dosage activity line compared with digoxin ([2]; in words): flatter than in the case of digoxin

C[C@H]1O[C@@H](O[C@H]2[C@@H](O)C[C@H](O[C@H]3[C@@H](O)C[C@H](O[C@H]4CC[C@@]5(C)[C@H](CC[C@@H]6[C@@H]5CC(=NO)[C@]5(C)[C@@H](C7=CC(=O)OC7)CC[C@]65O)C4)O[C@@H]3C)O[C@@H]2C)C[C@H](O)[C@@H]1O [Compound 1, 12-Dehydrodigoxin oxime]
distribution volume [1]: 2.74 kg⁻¹ | elimination constant [1]: 0.0258 h⁻¹ | excretion in urine [1]: 30 % of dose | dosage needed to achieve the same plasma concentration, relative to digoxin ([1]; cats): about 45 % of the dosage of digoxin | elimination constant compared with digoxin ([1]; in words, cats): even greater | TD50 (in vivo): 0.51 mg/kg | selectivity ratio (in vivo): 4.85 | ED (1.5 mmHg/sec increase) [2]: 0.105 mg/kg | ED (3.0 mmHg/sec increase) [2]: 0.236 mg/kg | quotient of DE3.0 and DE1.5, steepness of the dosage activity line [2]: 1.98
